For experiment [1], the target named is Mitogen-activated protein kinase 1 (Homo sapiens, UniProt P28482). The experiment is described as follows: DRUGMATRIX: Protein Serine/Threonine Kinase, ERK2 enzyme inhibition (substrate: Myelin Basic Protein). As to conditions: Not Active = under 50% inhibition at 10 µM. More on the design: species or system Escherichia coli.
Experiment [2] is described as follows: DRUGMATRIX: Leukotriene, BLT (LTB4) radioligand binding (ligand: [3H]LTB4). In kind it is cell membranes, Membrane. As to conditions: u-937; Not Active = under 50% inhibition at 10 µM.
Experiment [3] concerns the target Mitogen-activated protein kinase 3 (Homo sapiens, UniProt P27361). The experiment can be described thus: DRUGMATRIX: Protein Serine/Threonine Kinase, ERK1 enzyme inhibition (substrate: Myelin Basic Protein). The following applies: Not Active = under 50% inhibition at 10 µM. Details: species or system Escherichia coli.
Experiment [4] in a line: DRUGMATRIX: ATPase, Na+/K+ enzyme inhibition (substrate: ATP). The format is tissue-based, Sus scrofa, Heart. The following applies: Not Active = under 50% inhibition at 10 µM.
The nature of experiment [5]: DRUGMATRIX: Sodium/nucleoside co-transporter radioligand binding (ligand: nitrobenzylthioinosine). The format is cell membranes, Cavia porcellus, Dunkin-Hartley, Cerebral cortex, Membrane. As to conditions: Not Active = under 50% inhibition at 10 µM.
Experiment [6] deals with T1, Angiotensin-converting enzyme (Oryctolagus cuniculus, UniProt P12822).
T1 sequence (P12822 whole entry): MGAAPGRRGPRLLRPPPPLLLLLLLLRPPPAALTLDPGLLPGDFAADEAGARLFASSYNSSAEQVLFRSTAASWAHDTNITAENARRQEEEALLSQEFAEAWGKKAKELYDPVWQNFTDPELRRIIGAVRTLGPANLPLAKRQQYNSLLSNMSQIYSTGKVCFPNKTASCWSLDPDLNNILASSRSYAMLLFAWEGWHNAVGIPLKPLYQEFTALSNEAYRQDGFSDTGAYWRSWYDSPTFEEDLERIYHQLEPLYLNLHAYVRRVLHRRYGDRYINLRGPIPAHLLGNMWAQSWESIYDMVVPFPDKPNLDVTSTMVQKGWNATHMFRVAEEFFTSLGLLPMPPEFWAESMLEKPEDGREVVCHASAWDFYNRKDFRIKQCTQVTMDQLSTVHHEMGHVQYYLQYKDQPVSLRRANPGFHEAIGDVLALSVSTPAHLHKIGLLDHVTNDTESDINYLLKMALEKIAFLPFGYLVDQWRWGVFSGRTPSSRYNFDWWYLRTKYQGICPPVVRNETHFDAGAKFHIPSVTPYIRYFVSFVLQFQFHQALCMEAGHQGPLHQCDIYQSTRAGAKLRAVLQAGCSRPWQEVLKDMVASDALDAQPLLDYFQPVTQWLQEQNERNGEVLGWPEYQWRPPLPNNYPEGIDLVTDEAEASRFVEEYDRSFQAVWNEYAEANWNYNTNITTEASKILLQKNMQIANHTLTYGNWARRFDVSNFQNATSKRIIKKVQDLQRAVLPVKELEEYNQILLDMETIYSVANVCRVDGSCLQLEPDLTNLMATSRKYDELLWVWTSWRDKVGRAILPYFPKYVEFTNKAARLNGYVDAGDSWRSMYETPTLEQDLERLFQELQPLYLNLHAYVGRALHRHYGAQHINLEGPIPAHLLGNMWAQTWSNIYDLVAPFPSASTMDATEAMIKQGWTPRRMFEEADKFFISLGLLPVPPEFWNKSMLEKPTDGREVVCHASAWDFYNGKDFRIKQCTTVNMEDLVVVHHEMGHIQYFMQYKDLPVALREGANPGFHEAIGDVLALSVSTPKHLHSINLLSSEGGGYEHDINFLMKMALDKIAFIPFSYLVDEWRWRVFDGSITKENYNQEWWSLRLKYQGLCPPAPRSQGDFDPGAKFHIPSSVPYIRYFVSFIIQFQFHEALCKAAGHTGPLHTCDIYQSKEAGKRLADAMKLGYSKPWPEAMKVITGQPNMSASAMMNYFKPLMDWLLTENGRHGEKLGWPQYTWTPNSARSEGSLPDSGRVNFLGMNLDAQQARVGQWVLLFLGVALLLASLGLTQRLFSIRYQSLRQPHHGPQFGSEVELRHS
In kind it is tissue-based, Lung.

Experiment [7] deals with T2, Type-2 angiotensin II receptor (Homo sapiens, UniProt P50052).
T2 sequence (P50052 whole entry): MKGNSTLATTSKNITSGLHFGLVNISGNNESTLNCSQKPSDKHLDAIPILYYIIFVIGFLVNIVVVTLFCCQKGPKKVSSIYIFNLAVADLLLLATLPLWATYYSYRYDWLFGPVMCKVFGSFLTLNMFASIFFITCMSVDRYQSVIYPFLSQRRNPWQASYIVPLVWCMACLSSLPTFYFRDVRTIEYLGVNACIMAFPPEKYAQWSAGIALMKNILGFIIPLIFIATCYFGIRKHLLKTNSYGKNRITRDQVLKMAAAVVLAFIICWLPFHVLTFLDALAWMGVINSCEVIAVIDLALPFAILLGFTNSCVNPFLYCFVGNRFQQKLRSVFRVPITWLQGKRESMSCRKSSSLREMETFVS
The experiment is described as follows: biochemical. The format is cell-based, CHO-K1. The following applies: cho-k1.

Mitogen-activated protein kinase 3, sequence (P27361 whole entry): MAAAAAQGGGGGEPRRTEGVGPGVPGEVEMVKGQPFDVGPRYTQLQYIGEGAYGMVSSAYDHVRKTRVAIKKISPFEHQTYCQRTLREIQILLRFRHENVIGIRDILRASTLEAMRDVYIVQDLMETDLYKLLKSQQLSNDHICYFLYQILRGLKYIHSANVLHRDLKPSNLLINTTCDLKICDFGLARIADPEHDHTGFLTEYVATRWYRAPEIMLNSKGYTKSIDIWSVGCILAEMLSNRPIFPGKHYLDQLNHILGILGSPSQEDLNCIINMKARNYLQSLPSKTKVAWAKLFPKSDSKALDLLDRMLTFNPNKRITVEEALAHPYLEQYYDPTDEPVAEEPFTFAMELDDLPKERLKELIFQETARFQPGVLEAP
Mitogen-activated protein kinase 1, sequence (P28482 whole entry): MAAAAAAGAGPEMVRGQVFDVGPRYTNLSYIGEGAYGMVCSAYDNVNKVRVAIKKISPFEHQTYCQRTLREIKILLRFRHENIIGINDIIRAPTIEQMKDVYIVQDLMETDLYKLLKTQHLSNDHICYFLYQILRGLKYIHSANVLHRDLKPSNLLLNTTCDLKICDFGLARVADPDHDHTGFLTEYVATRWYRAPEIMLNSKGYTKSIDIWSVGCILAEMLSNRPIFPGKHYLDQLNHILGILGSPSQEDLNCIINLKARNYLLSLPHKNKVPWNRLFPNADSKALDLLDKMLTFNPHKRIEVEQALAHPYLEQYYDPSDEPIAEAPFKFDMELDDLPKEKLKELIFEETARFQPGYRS

The IC50 is the concentration at which inhibition is half-maximal. In the case of `CCOc1nc2cccc(C(=O)O)c2n1Cc1ccc(-c2ccccc2-c2nnn[nH]2)cc1`, the IC50 result in experiment [1], in experiment [2], in experiment [3], in experiment [4], in experiment [5] and in experiment [6] was “Not Active” each time. Moreover, the IC50 result in experiment [7] is recorded as “Not Active”. Moreover, the Ki result in experiment [2], in experiment [4] and in experiment [5] was “Not Active” in each case.
For the compound `O=C(O)CCCc1cccs1`, the IC50 result in experiment [1], in experiment [2], in experiment [3], in experiment [4], in experiment [5] and in experiment [6] was “Not Active” in each case. In experiment [7], the IC50 entry is recorded as “Not Active”. For the same compound, the Ki result in experiment [2], in experiment [4] and in experiment [5] was “Not Active” throughout.
On to `COc1ccccc1N`, for which the IC50 entry in experiment [1], in experiment [2], in experiment [3], in experiment [4], in experiment [5] and in experiment [6] was “Not Active” throughout. In addition, in experiment [7], the IC50 result was “Not Active”. Besides, the Ki entry in experiment [2], in experiment [4] and in experiment [5] was “Not Active” throughout.
Regarding `O=C(c1ccccc1F)N1CCC(Cc2ccccc2)CC1`, the concentration for half-maximal inhibition (IC50) result in experiment [1], in experiment [2], in experiment [3], in experiment [4], in experiment [5] and in experiment [6] was “Not Active” throughout. Also, the concentration for half-maximal inhibition (IC50) result in experiment [7] is “Not Active”. Also, the Ki entry in experiment [2], in experiment [4] and in experiment [5] was “Not Active” throughout.
As for `Cc1c(O)cccc1C(=O)N[C@@H](CSc1ccccc1)[C@H](O)CN1C[C@H]2CCCC[C@H]2C[C@H]1C(=O)NC(C)(C)C`, the half-inhibitory concentration (IC50) result is “Not Active” in experiment [1]; “Not Active” in experiment [2]; 22.5 µM in experiment [3] (read-out: IC50); “Not Active” in experiment [4]; “Not Active” in experiment [5]; “Not Active” in experiment [6]. In addition, the IC50 entry in experiment [7] is “Not Active”. Also, the Ki entry in experiment [2], in experiment [4] and in experiment [5] was “Not Active” in each case.
With `CC(O)COC[C@H]1O[C@@H]2O[C@H]3[C@H](O)[C@@H](O)[C@@H](O[C@H]4[C@H](O)[C@@H](O)[C@@H](O[C@H]5[C@H](O)[C@@H](O)[C@@H](O[C@H]6[C@H](O)[C@@H](O)[C@@H](O[C@H]7[C@H](O)[C@@H](O)[C@@H](O[C@H]8[C@H](O)[C@@H](O)[C@@H](O[C@H]1[C@H](O)[C@H]2O)O[C@@H]8COCC(C)O)O[C@@H]7COCC(C)O)O[C@@H]6COCC(C)O)O[C@@H]5COCC(C)O)O[C@@H]4COCC(C)O)O[C@@H]3COCC(C)O` (stereo partly drawn) [2-HYDROXYPROPYL-BETA-CYCLODEXTRIN], the concentration for half-maximal inhibition (IC50) entry in experiment [1], in experiment [2], in experiment [3], in experiment [4], in experiment [5] and in experiment [6] was “Not Active” throughout. In addition, the half-maximal inhibitory concentration (IC50) result in experiment [7] was “Not Active”. Also, the Ki result in experiment [2], in experiment [4] and in experiment [5] was “Not Active” in each case.
Regarding `NC(=O)c1cccc(N)c1` [3-AMINOBENZAMIDE], the half-inhibitory concentration (IC50) entry in experiment [1], in experiment [2], in experiment [3], in experiment [4], in experiment [5] and in experiment [6] was “Not Active” in each case. Further, the IC50 result in experiment [7] was “Not Active”. In addition, the Ki entry in experiment [2], in experiment [4] and in experiment [5] was “Not Active” each time.
On to `C[C@H]1O[C@H](O[C@H]2[C@H](O)[C@@H](O)[C@@H](O[C@H]3[C@H](O)[C@@H](O)C(O)O[C@@H]3CO)O[C@@H]2CO)[C@H](O)[C@@H](O)[C@@H]1N[C@H]1C=C(CO)[C@@H](O)[C@H](O)[C@H]1O` (stereo partly drawn) [ACARBOSE], for which the IC50 result in experiment [1], in experiment [2], in experiment [3], in experiment [4], in experiment [5] and in experiment [6] was “Not Active” in each case. In addition, in experiment [7], the IC50 result is recorded as “Not Active”. Moreover, the Ki result in experiment [2], in experiment [4] and in experiment [5] was “Not Active” each time.
For the compound `CC[C@H]1[C@@H]2C[C@H]3[C@@H]4N(C)c5ccccc5[C@]45C[C@@H]([C@@H]2[C@H]5O)N3[C@@H]1O` [AJMALINE], the IC50 entry in experiment [1], in experiment [2], in experiment [3], in experiment [4], in experiment [5] and in experiment [6] was “Not Active” in each case. In addition, the 50% inhibitory concentration (IC50) result in experiment [7] was “Not Active”. Further, the Ki entry in experiment [2], in experiment [4] and in experiment [5] was “Not Active” in each case.
Consider `NC12CC3CC(CC(C3)C1)C2` [AMANTADINE], for which the IC50 result in experiment [1], in experiment [2], in experiment [3], in experiment [4], in experiment [5] and in experiment [6] was “Not Active” in each case. Further, the IC50 result in experiment [7] is on record as “Not Active”. The Ki result in experiment [2], in experiment [4] and in experiment [5] was “Not Active” throughout.
Turning to `NCCCNCCSP(=O)(O)O` [AMIFOSTINE], the IC50 result in experiment [1], in experiment [2], in experiment [3], in experiment [4], in experiment [5] and in experiment [6] was “Not Active” each time. The IC50 entry in experiment [7] is recorded as “Not Active”. Further, the Ki result in experiment [2], in experiment [4] and in experiment [5] was “Not Active” each time.
With `CN(C)CCC=C1c2ccccc2CCc2ccccc21` [AMITRIPTYLINE], the concentration for half-maximal inhibition (IC50) result in experiment [1], in experiment [2], in experiment [3], in experiment [4], in experiment [5] and in experiment [6] was “Not Active” each time. Besides, in experiment [7], the half-inhibitory concentration (IC50) result was “Not Active”. Moreover, the Ki entry in experiment [2], in experiment [4] and in experiment [5] was “Not Active” in each case.
Take `CC(=O)Oc1ccccc1C(=O)O` [ASPIRIN]: the IC50 result in experiment [1], in experiment [2], in experiment [3], in experiment [4], in experiment [5] and in experiment [6] was “Not Active” each time. Also, the IC50 result in experiment [7] was “Not Active”. Further, the Ki entry in experiment [2], in experiment [4] and in experiment [5] was “Not Active” in each case.
Consider `CO/N=C(\C(=O)N[C@@H]1C(=O)N2C(C(=O)O)=C(COC(C)=O)CS[C@H]12)c1csc(N)n1` [CEFOTAXIME], for which the IC50 entry in experiment [2], in experiment [4], in experiment [5], in experiment [6] and in experiment [7] was “Not Active” each time. The Ki result in experiment [2], in experiment [4] and in experiment [5] was “Not Active” throughout.

For the origin of these results see ChEMBL document CHEMBL1909046, “DrugMatrix in vitro pharmacology data”.
